According to patent US8426369B2, “Prevention and treatment of colon cancer” (Rutgers, The State University of New Jersey, priority 2006, dated 2013):

Assays:
[1] = system: mucin MUC2; experiment: Mucin MUC2 immunostaining of colon sections; format: in vivo, male F344 rats; conditions: 40 ppm in diet, AOM-treated rats
Procedure: Animals were treated as described in Example 27. Colon samples from each group were harvested at autopsy and fixed in 10% formalin for 24 hr. They were sectioned into 8 to 10 segments, paraffin embedded, and microtomed into 4 μm thick tissue sections. The slides were incubated overnight at room temperature with antibody to proliferating cell nuclear antigen (PCNA) (1:1000 diluted, BD Pharmingen, San Diego, Calif.), iNOS (1:100 diluted, Santa Cruz Biotechnology, Santa Cruz, Calif.), or mucin MUC2 (1:250 diluted, Santa Cruz Biotechnology, Santa Cruz, Calif.).
The slides were incubated with the biotinylated secondary antibody, and then with avidin/biotinylated peroxidase complex for 30 min at room temperature (Vector Labs, Burlingame, Calif.), and were incubated with […] (DAB) substrate. The sections were then counter-stained with Modified Harris Hematoxylin. The images were taken randomly at 400× using Zeiss AxioCam HRc camera fitted to a Zeiss Axioskope 2 Plus microscope. A positive reaction is noted by a reddish brown precipitate in the nucleus for PCNA, in the cytoplasm for iNOS or in the colon crypts for mucin MUC2.

[2] = system: iNOS; experiment: Cytokine-induced iNOS protein expression in HT-29 cells (Western blot); format: cell-based, human; conditions: HT-29; for inhibition of iNOS expression: with cytokine mixture (each 10 ng/ml), 15 hr
Procedure: HT-29 human colon adenocarcinoma cells were grown in 10% FBC/DMEM. Cells (about 600,000 cells/well) were plated in 6-well plate and treated with stilbene analogs shown in FIG. 4 (each at 10 μM) for 15 hours together with cytokine mixture comprising TNF-a, IFN0g, and LPS (each at 10 ng/ml). Cell lysates were prepared and subjected to Western Blot analysis.
(§1) Human colon carcinoma cell lines HT-29 was obtained from the American Type Culture Collection (Manassas, Va.). The cells were maintained in Dulbecco's modification of Eagle's medium (DMEM) supplemented with 10% FBS and 1% penicillin/streptomycin at 37° C. and 5% CO2. The cytokine mixture, consisting of 10 ng/ml of TNF-α, IFN-γ and LPS, was used to induce iNOS and COX-2, unless otherwise mentioned. The cells were treated with the test compound either alone or in combination with cytokines for different time intervals and harvested for protein or RNA.
(§2) The cell culture conditions and the reagents used in this example were described in Example 32. Whole cell extracts were collected after the various treatments and analyzed by western blotting. The protein samples were separated on 4-15% SDS-PAGE gels (Biorad, Hercules, Calif.) followed by transfer to a polyvinylidene fluoride membrane. The membranes were blocked with 5% milk in Tris buffer for 1 h and then incubated with the appropriate primary antibody solutions overnight at 4° C. The membranes were washed with Tris buffer, and incubated with horseradish peroxidase conjugated secondary antibody solutions for 1 h at room temperature.
(§3) The protein bands were visualized using a chemiluminescence based kit from Amersham Biosciences (Buckinghamshire, UK). The primary antibodies against iNOS, COX-2, IκBα, cyclin D1, c-myc (Santa Cruz Bio-technology, Santa Cruz, Calif.), phospho-STAT3, phospho-Erk1/2, phospho-JNK1/2, phospho-p38, phospho-Akt, phospho-ATF2, phospho-Elk1, PARP (Cell Signaling Technology Inc., Beverly, Mass.) and actin (Sigma, St. Louis, Mo.) and secondary antibodies (Santa Cruz Biotechnology, Santa Cruz, Calif.) were used for probing the abundance of the target protein in the samples.

[3] = system: HT-29 cells; experiment: [3H]Thymidine incorporation cell proliferation assay in HT-29 cells; format: cell-based, human; conditions: Homo sapiens, HT-29, 30 μM at 3 days, read-out: inhibition of DNA synthesis
Procedure: The stilbenes illustrated in FIG. 4 were also used to investigate their ability to inhibit cell proliferation in HT-29 cell line. In this experiment, HT-29 cells (20,000 cells/well in 24-well plate) were treated with the respective stilbenes (each used either at 30 μM or 3 μM) in 10% FBS/DMEM for three days.
as §1
HT-29 cells were plated at a density of 20,000 cells/well in a 24 well plate and treated with varying concentrations of pterostilbene for a period of 1, 2 or 3 days at 37° C. Before harvest, the cells were incubated with 1 μCi [^3H]thymidine for 4 h at 37° C. and were washed with phosphate buffered saline. The cells were precipitated with cold 10% trichloroacetic acid for 10 min and solubilized with 0.5 ml solubilization buffer (0.2 M NaOH, 40 μg/ml salmon sperm DNA) for 2 h at room temperature. The lysate was transferred to 5 ml Ecolume and the [3H]thymidine incorporated into the DNA of HT-29 cells was determined using a scintillation spectrometer (Beckman Coulter, Fullerton, Calif.).

[4] = system: c-myc; experiment: Western blot of c-myc in HT-29 cells; format: cell-based, human; conditions: 9 h or 18 h, especially at 9 h
Procedure: (§4) The cells were incubated with different concentrations of pterostilbene for 1, 2 and 3 days, and cell proliferation was estimated by measuring [^3H]thymidine incorporated into DNA. […] In order to evaluate whether pterostilbene potentiates cell cycle arrest or apoptosis in HT-29 cells, the effect of pterostilbene on the proteins regulating the cell cycle and/or apoptosis pathways was examined. Cells treated with pterostilbene for 9 h or 18 h were harvested and protein samples were analyzed by Western blotting (FIG. 8B).
as §2
(§5) The protein bands were visualized using a chemiluminescence based kit from Amersham Biosciences (Buckinghamshire, UK). […]

[5] = system: cyclin D1; experiment: Western blot of cyclin D1 in HT-29 cells; format: cell-based, human; conditions: 9 h or 18 h, especially at 9 h
Procedure: as §4, §2, §5

[6] = system: p27; experiment: Western blot of p27 in HT-29 cells; format: cell-based, human; conditions: HT-29, data not shown
Procedure: as §4, §2, §5

[7] = system: phospho-STAT3; experiment: Western blot of phospho-STAT3 in cytokine-treated HT-29 cells; format: cell-based, human
Procedure: as §2, §3
The significance of the JAK-STAT pathway in HT-29 cells was evaluated by probing for phospho-STAT3. Cytokines activated the STAT pathway, as shown by a strong induction of phospho-STAT3.

[8] = system: p-Akt; experiment: Western blot of p-Akt in cytokine-treated HT-29 cells; format: cell-based, human
Procedure: as §2, §3

[9] = system: TGF-β ligands; experiment: Induction of TGF-β ligands in HT-29 cells; format: cell-based, human; conditions: HT-29, data not shown
From the text: The significance of the transforming growth factor (TGF-β) pathway in down-regulating iNOS expression by pterostilbene was also investigated since TGF-β is a very potent inhibitor of iNOS and cytokines regulate Smad signaling of the TGF-β pathway. However, there was no effect of pterostilbene on activated Smad levels (p-Smad3) or in inducing TGF-β ligands (data not shown).

[10] = system: Elk-1; experiment: Western blot of cytokine-induced Elk-1 phosphorylation in HT-29 cells; format: cell-based, human; conditions: cytokine-treated HT-29
Procedure: as §2
as §3, with “samples. […]” for “samples.”

[11] = system: carcinogen-induced preneoplastic lesions; conditions: MMOC model; cited from earlier work
[12] = 25 mg pterostilbene/kg diet, hypercholesterolemic hamsters; cited from earlier work

COc1cc(/C=C/c2ccc(O)cc2)cc(OC)c1 [pterostilbene, (E)-4-(3,5-dimethoxystyryl)phenol]
mucin MUC2 staining of colon mucosa [1]: abundant secretion of mucin MUC2
inhibition of iNOS expression ([2]; 1 μM): 14%
inhibition of iNOS expression ([2]; 10 μM): 61%
induction of iNOS by the cytokine mixture ([2]; 30 μM, 9, 12 and 15 h): markedly blocked
inhibition of iNOS expression ([2]; 30 μM): 77%
induction of iNOS by the cytokine mixture, different concentrations ([2]; different concentrations): dose-dependent manner
inhibition at 30 µM [3]: 71 ± 3%
c-myc level [4]: effective in reducing
cyclin D1 level [5]: effective in reducing
induction of p27 [6]: no induction
level of induced phospho-STAT3 [7]: did not alter
level of p-Akt [8]: did not change
inducing TGF-β ligands [9]: no effect
cytokine-induced activation (phosphorylation) of Elk-1 [10]: effective in inhibiting
preventing carcinogen-induced preneoplastic lesions [11]: as effective as resveratrol
plasma cholesterol and lipoproteins [12]: lowered plasma cholesterol and lipoproteins
